What was measured:
[1] = system: d-IBS; experiment: Study of rifaximin BID doses vs placebo in subjects with d-IBS: adequate relief of IBS symptoms and bloating; assay type: in vivo, human; settings: for Percentage of subjects with adequate relief of IBS symptoms / Percentage of subjects with adequate relief of bloating symptom: RFX 550 mg BID 14 d, at least 2 of final 3 weeks of treatment phase (Weeks 1-4); for Adequate relief of bloating, post treatment, Failures / Adequate relief of bloating, post treatment, Success / Adequate relief of bloating, post treatment, Failure: RFX 550 2w (N = 54); for Patients with adequate relief of bloating / Patients with adequate relief of global IBS symptoms: 550 mg BID 14 d
Description: This example relates to a study of rifaximin in subjects with d-IBS. […] There were two measures of efficacy assessed. Subjects were questioned on the relief of overall IBS symptoms and bloating. […] The analyses defined success as a “yes” response to questions regarding adequate relief.
All subpopulations in the study responded to therapy. Baseline severity was determined using 7-point Lickert scales during screening for Abdominal Pain/Discomfort and Bloating, and the number, type (normal, hard, loose) and urgency of bowel movements.
Duration of effect was assessed in a follow-up period. Subjects that responded in the 4 week treatment period were followed for an additional 3 months.
The effect of treatment on the percentage of subjects who reported adequate relief of IBS and bloating symptoms for at least two of the final three weeks during the treatment phase (Weeks 1 to 4) is shown in Tables 5-7 and FIGS. 4-6 below.
The study assessed the effect over 12 weeks of follow-up on long-term adequate relief. Subjects who had adequate relief by Week 4 and remained symptom-free at Week 5 were followed during the post-treatment phase and shown in FIGS. 1 and 2. Superiority to placebo was maintained during the 12 weeks post-treatment follow-up. Results for IBS symptoms were RFX 550 mg BID 62.3% versus placebo 49.2%, and RFX 550 mg BID 59.3% versus 50.9% for placebo for the symptom of bloating through week 16. In assessing the follow-up data, there was statistical significance (p<0.05) of bloating and IBS symptoms for RFX 550 mg BID versus placebo.
Two measures of efficacy were assessed independently. The first was the proportion of subjects who provided a ‘yes’ response to the weekly SGA question: “In the past 7 days, have you had adequate relief of your IBS symptoms? (yes/no)”. The second endpoint was the proportion of subjects who provide a ‘yes’ response to the weekly individual symptom question: “In the past 7 days, have you had adequate relief of your symptom of bloating? (yes/no)”. Durability was based on the proportion of subjects that had adequate relief over the entire treatment phase.
It is reported herein that the severity of baseline symptoms of abdominal pain and bloating influenced the response to rifaximin treatment. The co-primary endpoints in this analysis assessed weekly yes/no responses to questions regarding adequate relief of global IBS symptoms and IBS-associated bloating. Severity of baseline IBS symptoms was evaluated as a potential confounder of clinical response and was categorized as mild/moderate or severe based on a mean score of ≤4 vs. >4 (on a 7-point scale) for bloating and abdominal pain.
The Weekly yes/no responses to questions regarding adequate relief of global IBS symptoms and IBS-associated bloating were assessed. Clinical response was defined as adequate relief for 2 of the final 3 treatment weeks (wk 2, 3, or 4). Severity of baseline IBS symptoms was evaluated as a potential confounder of clinical response and was categorized as mild/moderate or severe based on a mean score of ≤4 versus >4 (on a 7-point scale (0=not bothersome; 6=very bothersome)) for bloating and abdominal pain.

[2] = RFX 550 mg BID, responders followed through week 16
[3] = patients with mild/moderate abdominal pain at baseline
[4] = patients with mild/moderate bloating at baseline

SMILES: CO[C@H]1/C=C/O[C@@]2(C)Oc3c(C)c(O)c4c(O)c(c5c(nc6cc(C)ccn65)c4c3C2=O)NC(=O)/C(C)=C\C=C\[C@H](C)[C@H](O)[C@@H](C)[C@@H](O)[C@@H](C)[C@H](OC(C)=O)[C@@H]1C [Rifaximin, (2S,16Z,18E,20S,21S,22R,23R,24R,25S,26S,27S,28E)-5,6,21,23,25 Pentahydroxy-27-methoxy-2,4,11,16,20,22,24,26-octamethyl-2,7-(epoxypentadeca-(1,11,13)trienimino) benzofuro (4,5-e) pyrido(1,2-a) benzimidazole-1,15(2H)-dione,25-acetate]
- Adequate relief of bloating at end of treatment phase, Success ([1]; Male, RFX 1100 2w): 10 (38.5%) n (%)
- Percentage of subjects with adequate relief of IBS symptoms ([1]; ITT): 52%
- Percentage of subjects with adequate relief of bloating symptom ([1]; ITT): 46%
- Percentage of subjects with adequate relief of IBS symptoms ([1]; ITT, listed as RFX): 52.4%
- Percentage of subjects with adequate relief of bloating symptom ([1]; ITT, listed as RFX): 46.1%
- Percentage of subjects with 0 weeks with adequate relief of IBS symptoms ([1]; RFX 550 mg BID, ITT): 33%
- Percentage of subjects with 0 weeks with adequate relief of bloating symptoms ([1]; RFX 550 mg BID, ITT): 35%
- Percentage of subjects with 1 week with adequate relief of IBS symptoms ([1]; RFX 550 mg BID, ITT): 11%
- Percentage of subjects with 1 week with adequate relief of bloating symptoms ([1]; RFX 550 mg BID, ITT): 14%
- Percentage of subjects with 2 weeks with adequate relief of IBS symptoms ([1]; RFX 550 mg BID, ITT): 15%
- Percentage of subjects with 2 weeks with adequate relief of bloating symptoms ([1]; RFX 550 mg BID, ITT): 15%
- Percentage of subjects with 3 weeks with adequate relief of IBS symptoms ([1]; RFX 550 mg BID, ITT): 23%
- Percentage of subjects with 3 weeks with adequate relief of bloating symptoms ([1]; RFX 550 mg BID, ITT): 20%
- Percentage of subjects with 4 weeks with adequate relief of IBS symptoms ([1]; RFX 550 mg BID, ITT): 16%
- Percentage of subjects with 4 weeks with adequate relief of bloating symptoms ([1]; RFX 550 mg BID, ITT): 14%
- Long-term adequate relief of IBS symptoms in post-treatment follow-up [1, 2]: 62.3%
- Long-term adequate relief of the symptom of bloating in post-treatment follow-up [1, 2]: 59.3%
- Adequate relief of bloating, post treatment, Failures ([1]; Week 6): 5 (9.3%) n (%)
- Adequate relief of bloating, post treatment, Success ([1]; Week 6): 49 (90.7%) n (%)
- Adequate relief of bloating, post treatment, Failures ([1]; Week 7): 9 (16.7%) n (%)
- Adequate relief of bloating, post treatment, Success ([1]; Week 7): 45 (83.3%) n (%)
- Adequate relief of bloating, post treatment, Failures ([1]; Week 8): 7 (13.0%) n (%)
- Adequate relief of bloating, post treatment, Success ([1]; Week 8): 47 (87.0%) n (%)
- Adequate relief of bloating, post treatment, Failures ([1]; Week 9): 15 (27.8%) n (%)
- Adequate relief of bloating, post treatment, Success ([1]; Week 9): 39 (72.2%) n (%)
- Adequate relief of bloating, post treatment, Failures ([1]; Week 10): 15 (27.8%) n (%)
- Adequate relief of bloating, post treatment, Success ([1]; Week 10): 39 (72.2%) n (%)
- Adequate relief of bloating, post treatment, Failures ([1]; Week 11): 19 (35.2%) n (%)
- Adequate relief of bloating, post treatment, Success ([1]; Week 11): 35 (64.8%) n (%)
- Adequate relief of bloating, post treatment, Failure ([1]; Week 12): 18 (33.3%) n (%)
- Adequate relief of bloating, post treatment, Success ([1]; Week 12): 36 (66.7%) n (%)
- Adequate relief of bloating, post treatment, Failure ([1]; Week 13): 21 (38.9%) n (%)
- Adequate relief of bloating, post treatment, Success ([1]; Week 13): 33 (61.1%) n (%)
- Adequate relief of bloating, post treatment, Failure ([1]; Week 14): 20 (37.0%) n (%)
- Adequate relief of bloating, post treatment, Success ([1]; Week 14): 34 (63.0%) n (%)
- Adequate relief of bloating, post treatment, Failure ([1]; Week 15): 23 (42.6%) n (%)
- Adequate relief of bloating, post treatment, Success ([1]; Week 15): 31 (57.4%) n (%)
- Adequate relief of bloating, post treatment, Failure ([1]; Week 16): 22 (40.7%) n (%)
- Adequate relief of bloating, post treatment, Success ([1]; Week 16): 32 (59.3%) n (%)
- Treatment effect, Bloating ([1]; aIBS): 31.4%*, 31.4%
- Treatment effect, IBS Sx ([1]; aIBS): 31.4%*, 31.4%
- Treatment effect, Bloating ([1]; dIBS only): 4.5%
- Treatment effect, IBS Sx ([1]; dIBS only): 6.3%
- Patients with adequate relief of bloating [1, 3]: 44%
- Patients with adequate relief of global IBS symptoms [1, 3]: 50%
- Patients with adequate relief of bloating [1, 4]: 47%
- Patients with adequate relief of global IBS symptoms [1, 4]: 56%
- Severe TEAEs, SAEs, deaths (overall in the study): no severe TEAEs, SAEs, or deaths
- Subjects with a TEAE (rifaximin treatment period (7 subjects)): 25%
